Results reported in patent publication US20180078655A1, “IMMUNOCONJUGATES FOR SPECIFIC INDUCTION OF T CELL CYTOTOXICITY AGAINST A TARGET CELL” (priority 2015, published 2018).

System: A-375, PC-3, HCT-116 tumor cell lines
Experiment: LDH release assay and xCELLigence, FLU peptide immunoconjugate
Type: cell-based, human
Conditions: xCELLigence, 6, 10 and 18 hours

CTELKLSDY [free peptide]
tumor cell killing over the course of time: usually decreased in higher incubation times
